Key:
[1] = target: Beta-1 adrenergic receptor (Homo sapiens, UniProt P08588); type: functional, cell-based
[2] = target: T1, Endothelin receptor type B (Homo sapiens, UniProt P24530)
T1 sequence (P24530 whole entry): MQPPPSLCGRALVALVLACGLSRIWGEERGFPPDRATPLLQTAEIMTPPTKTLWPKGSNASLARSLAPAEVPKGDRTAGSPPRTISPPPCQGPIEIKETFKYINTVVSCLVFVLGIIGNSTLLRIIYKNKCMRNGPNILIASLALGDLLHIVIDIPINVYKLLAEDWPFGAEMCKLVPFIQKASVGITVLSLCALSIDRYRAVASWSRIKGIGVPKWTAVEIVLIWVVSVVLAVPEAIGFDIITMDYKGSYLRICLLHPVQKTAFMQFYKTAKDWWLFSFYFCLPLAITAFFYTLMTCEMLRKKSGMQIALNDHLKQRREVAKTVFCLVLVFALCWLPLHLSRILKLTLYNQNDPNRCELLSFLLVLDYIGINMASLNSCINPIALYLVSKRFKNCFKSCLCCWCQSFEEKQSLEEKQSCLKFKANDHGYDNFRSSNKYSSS

Glucagon receptor = Glucagon receptor (Homo sapiens, UniProt P47871)
Glucagon receptor, sequence (P47871 whole entry): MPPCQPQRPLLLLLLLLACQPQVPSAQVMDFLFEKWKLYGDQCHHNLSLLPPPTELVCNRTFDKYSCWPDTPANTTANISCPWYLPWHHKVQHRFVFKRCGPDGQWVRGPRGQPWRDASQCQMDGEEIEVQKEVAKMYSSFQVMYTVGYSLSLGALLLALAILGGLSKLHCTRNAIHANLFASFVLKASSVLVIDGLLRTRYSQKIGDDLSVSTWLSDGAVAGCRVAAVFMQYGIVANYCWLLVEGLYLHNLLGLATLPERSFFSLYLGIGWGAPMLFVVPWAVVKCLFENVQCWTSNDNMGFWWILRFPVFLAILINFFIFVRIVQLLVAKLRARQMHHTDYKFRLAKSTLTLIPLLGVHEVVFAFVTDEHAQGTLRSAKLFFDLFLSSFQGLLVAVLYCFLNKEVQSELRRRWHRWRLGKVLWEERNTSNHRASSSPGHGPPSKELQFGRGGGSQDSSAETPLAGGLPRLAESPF

Estrogen receptor beta = Estrogen receptor beta (Homo sapiens, UniProt Q92731)
Estrogen receptor beta, sequence (Q92731 whole entry): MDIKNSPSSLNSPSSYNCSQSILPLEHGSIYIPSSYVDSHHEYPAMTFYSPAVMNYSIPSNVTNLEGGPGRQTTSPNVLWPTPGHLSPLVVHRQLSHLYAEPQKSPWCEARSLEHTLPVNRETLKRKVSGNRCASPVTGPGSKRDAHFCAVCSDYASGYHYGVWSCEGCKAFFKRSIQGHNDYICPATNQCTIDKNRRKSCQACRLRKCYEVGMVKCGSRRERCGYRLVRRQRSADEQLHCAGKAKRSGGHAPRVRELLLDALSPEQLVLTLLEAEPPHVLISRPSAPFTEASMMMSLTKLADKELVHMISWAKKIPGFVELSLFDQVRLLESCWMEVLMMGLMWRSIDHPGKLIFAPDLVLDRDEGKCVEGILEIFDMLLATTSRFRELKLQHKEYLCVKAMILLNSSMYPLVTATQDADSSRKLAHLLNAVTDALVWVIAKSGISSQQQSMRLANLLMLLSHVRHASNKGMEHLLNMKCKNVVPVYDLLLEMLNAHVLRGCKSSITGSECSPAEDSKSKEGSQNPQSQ

[3] = target: T2, Corticotropin-releasing factor receptor 2 (Homo sapiens, UniProt Q13324)
T2 sequence (Q13324 whole entry): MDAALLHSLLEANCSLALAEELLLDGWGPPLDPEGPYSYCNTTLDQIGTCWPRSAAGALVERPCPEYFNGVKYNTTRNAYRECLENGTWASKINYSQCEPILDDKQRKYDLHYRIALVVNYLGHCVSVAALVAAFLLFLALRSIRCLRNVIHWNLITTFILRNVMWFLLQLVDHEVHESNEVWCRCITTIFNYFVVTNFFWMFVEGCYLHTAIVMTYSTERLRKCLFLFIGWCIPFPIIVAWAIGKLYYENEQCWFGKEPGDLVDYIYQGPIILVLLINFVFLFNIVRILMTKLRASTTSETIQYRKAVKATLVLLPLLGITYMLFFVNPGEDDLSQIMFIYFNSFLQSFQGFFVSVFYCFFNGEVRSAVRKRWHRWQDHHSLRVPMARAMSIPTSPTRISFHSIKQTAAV

[4] = target: Gamma-aminobutyric acid type B receptor subunit 1 (Homo sapiens, UniProt Q9UBS5)
Gamma-aminobutyric acid type B receptor subunit 1, sequence (Q9UBS5 whole entry): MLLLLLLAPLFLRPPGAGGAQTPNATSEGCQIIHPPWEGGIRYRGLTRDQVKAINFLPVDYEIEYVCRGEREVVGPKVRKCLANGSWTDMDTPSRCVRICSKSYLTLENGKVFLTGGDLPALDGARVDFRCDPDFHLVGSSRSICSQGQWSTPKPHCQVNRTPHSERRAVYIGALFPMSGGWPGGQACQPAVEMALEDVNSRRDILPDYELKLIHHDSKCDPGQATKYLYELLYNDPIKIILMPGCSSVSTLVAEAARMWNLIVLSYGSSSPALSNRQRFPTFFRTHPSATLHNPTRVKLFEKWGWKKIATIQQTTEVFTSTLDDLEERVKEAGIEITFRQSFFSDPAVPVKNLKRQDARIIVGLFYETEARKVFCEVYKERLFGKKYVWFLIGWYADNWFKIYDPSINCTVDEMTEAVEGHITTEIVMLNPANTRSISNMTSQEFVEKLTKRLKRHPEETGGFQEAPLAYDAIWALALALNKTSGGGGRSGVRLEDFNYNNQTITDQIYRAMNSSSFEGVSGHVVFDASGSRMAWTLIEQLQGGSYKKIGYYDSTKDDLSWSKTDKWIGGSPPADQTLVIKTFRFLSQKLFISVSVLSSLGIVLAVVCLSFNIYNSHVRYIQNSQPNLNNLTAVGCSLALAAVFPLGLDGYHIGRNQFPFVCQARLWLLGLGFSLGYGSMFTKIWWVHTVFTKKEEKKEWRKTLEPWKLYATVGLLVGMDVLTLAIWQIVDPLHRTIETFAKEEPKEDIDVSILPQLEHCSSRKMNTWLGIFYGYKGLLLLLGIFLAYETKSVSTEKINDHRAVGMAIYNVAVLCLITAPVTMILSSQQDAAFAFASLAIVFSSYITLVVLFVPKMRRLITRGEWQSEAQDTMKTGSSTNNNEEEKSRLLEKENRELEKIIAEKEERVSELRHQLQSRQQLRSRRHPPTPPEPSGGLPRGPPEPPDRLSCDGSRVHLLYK

B1 bradykinin receptor = target: T3, B1 bradykinin receptor (Homo sapiens, UniProt P46663)
T3 sequence (P46663 whole entry): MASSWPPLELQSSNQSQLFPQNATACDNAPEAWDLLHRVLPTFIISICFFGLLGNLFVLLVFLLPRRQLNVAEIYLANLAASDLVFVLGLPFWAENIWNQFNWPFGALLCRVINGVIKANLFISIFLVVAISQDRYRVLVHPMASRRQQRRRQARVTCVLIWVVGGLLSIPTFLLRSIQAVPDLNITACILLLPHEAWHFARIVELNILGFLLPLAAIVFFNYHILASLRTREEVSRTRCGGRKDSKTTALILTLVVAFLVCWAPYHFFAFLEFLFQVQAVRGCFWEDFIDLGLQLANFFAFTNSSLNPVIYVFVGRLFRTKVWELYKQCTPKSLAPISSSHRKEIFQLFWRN

[5] = target: T4, Neuropeptide Y receptor type 2 (Homo sapiens, UniProt P49146)
T4 sequence (P49146 whole entry): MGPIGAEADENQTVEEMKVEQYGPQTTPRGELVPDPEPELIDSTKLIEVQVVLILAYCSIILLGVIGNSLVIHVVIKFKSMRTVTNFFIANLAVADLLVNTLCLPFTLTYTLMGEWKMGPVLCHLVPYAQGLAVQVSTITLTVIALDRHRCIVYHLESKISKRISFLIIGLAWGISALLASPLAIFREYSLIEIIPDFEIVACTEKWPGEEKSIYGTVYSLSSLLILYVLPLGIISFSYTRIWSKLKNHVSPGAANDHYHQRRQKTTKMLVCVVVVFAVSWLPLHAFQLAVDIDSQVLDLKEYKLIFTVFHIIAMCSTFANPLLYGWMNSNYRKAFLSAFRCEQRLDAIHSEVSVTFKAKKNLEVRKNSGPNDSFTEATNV

D(4) dopamine receptor = target: T5, D(4) dopamine receptor (Homo sapiens, UniProt P21917)
T5 sequence (P21917 whole entry): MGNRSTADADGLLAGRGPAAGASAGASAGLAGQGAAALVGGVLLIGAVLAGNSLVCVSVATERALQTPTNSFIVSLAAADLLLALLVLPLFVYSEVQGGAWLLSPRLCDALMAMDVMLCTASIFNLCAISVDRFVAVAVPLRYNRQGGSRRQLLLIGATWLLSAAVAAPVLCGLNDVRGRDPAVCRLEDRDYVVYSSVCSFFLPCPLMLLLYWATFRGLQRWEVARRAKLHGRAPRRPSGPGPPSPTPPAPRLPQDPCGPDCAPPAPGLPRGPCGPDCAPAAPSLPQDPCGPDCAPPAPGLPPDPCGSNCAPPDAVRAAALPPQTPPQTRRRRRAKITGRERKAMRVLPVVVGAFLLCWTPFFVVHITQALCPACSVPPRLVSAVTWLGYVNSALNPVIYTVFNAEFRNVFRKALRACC

Substance-P receptor = Substance-P receptor (Homo sapiens, UniProt P25103)
Substance-P receptor, sequence (P25103 whole entry): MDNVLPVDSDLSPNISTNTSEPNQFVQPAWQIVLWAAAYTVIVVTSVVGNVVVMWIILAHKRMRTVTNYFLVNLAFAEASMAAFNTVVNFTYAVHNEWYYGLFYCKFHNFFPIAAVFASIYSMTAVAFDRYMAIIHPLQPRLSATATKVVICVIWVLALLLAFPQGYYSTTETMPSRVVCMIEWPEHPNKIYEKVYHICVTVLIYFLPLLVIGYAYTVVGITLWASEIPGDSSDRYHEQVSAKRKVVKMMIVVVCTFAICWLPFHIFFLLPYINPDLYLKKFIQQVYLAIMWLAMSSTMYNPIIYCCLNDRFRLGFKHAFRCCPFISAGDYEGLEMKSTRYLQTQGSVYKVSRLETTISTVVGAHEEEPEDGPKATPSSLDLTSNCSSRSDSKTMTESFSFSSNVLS

[6] = target: 5-hydroxytryptamine receptor 2B (Homo sapiens, UniProt P41595)
5-hydroxytryptamine receptor 2B, sequence (P41595 whole entry): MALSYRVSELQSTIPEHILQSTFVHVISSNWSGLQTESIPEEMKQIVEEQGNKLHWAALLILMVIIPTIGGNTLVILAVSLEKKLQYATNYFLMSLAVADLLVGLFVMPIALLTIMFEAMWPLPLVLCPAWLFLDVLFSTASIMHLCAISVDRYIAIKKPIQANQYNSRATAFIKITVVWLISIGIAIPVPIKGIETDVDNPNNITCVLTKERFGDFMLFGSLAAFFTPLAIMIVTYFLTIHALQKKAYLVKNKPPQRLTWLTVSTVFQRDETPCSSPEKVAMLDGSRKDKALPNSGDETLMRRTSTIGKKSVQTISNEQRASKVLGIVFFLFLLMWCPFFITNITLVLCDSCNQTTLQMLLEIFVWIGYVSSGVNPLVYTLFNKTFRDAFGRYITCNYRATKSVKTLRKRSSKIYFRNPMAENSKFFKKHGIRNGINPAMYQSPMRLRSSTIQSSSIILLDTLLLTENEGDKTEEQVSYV

[7] = target: T6, Muscarinic acetylcholine receptor M2 (Homo sapiens, UniProt P08172)
T6 sequence (P08172 whole entry): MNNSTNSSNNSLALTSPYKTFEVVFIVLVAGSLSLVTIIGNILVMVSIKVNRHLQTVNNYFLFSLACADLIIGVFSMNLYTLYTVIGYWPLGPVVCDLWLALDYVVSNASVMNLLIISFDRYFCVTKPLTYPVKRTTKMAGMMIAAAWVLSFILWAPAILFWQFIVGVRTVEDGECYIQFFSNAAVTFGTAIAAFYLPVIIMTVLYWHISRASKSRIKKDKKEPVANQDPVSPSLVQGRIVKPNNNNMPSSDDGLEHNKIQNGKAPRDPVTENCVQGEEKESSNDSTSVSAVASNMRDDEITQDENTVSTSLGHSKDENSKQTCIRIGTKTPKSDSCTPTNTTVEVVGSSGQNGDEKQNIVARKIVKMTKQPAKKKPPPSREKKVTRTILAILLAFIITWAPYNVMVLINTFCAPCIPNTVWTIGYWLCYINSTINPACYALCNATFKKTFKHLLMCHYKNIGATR
Note: assay procedure not described here.

Beta-1 adrenergic receptor, sequence (P08588 whole entry): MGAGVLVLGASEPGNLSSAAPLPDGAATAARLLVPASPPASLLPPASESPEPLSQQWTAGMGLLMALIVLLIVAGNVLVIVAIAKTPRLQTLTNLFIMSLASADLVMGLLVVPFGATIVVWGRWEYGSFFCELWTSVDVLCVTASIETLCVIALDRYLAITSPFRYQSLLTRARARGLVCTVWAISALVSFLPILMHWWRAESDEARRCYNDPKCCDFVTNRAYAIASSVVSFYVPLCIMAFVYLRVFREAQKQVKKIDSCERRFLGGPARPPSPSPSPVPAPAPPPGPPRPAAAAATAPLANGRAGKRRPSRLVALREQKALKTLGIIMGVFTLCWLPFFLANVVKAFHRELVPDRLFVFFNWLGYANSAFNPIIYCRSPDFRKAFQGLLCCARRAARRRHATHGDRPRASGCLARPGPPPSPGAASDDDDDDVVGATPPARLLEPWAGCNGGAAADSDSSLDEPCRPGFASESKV

| SMILES | AC50 [1] | AC50 [2] | AC50 (Glucagon receptor) | AC50 (Estrogen receptor beta) | AC50 [3] | AC50 [4] | AC50 (B1 bradykinin receptor) | AC50 [5] | AC50 (D(4) dopamine receptor) | AC50 (Substance-P receptor) | AC50 [6] | AC50 [7] |
| --- | --- | --- | --- | --- | --- | --- | --- | --- | --- | --- | --- | --- |
| N#Cc1ccccc1-c1cc(-c2ccccn2)cn(-c2ccccc2)c1=O | > 30 µM | – | – | – | – | – | – | – | – | – | – | – |
| N=C(N)NCCCCCCC(=O)NC(O)C(=O)NCCCCNCCCN (stereo unspecified) | > 30 µM | – | – | – | – | – | – | – | – | – | – | – |
| NCCCC(O)(P(=O)(O)O)P(=O)(O)O [ALENDRONIC ACID] | – | > 30 µM | > 30 µM | > 30 µM | > 30 µM | > 10 µM | > 30 µM | > 30 µM | > 10 µM | > 10 µM | – | – |
| O=C(CCCN1CCC(n2c(O)nc3ccccc32)CC1)c1ccc(F)cc1 [BENPERIDOL] | > 30 µM | – | – | – | – | – | – | – | – | – | – | – |
| CCCC(C)(COC(N)=O)COC(=O)NC(C)C (stereo unspecified) [CARISOPRODOL] | – | > 30 µM | > 30 µM | – | > 30 µM | – | > 30 µM | > 30 µM | > 10 µM | > 10 µM | > 10 µM | > 10 µM |
| N[C@H](Cc1cc(I)c(Oc2cc(I)c(O)c(I)c2)c(I)c1)C(=O)O [DEXTROTHYROXINE] | – | > 30 µM | > 30 µM | > 30 µM | > 30 µM | – | > 30 µM | > 30 µM | – | – | > 10 µM | > 10 µM |
| CC(=O)OCC(CCn1cnc2cnc(N)nc21)COC(C)=O [FAMCICLOVIR] | – | > 30 µM | > 30 µM | > 30 µM | > 30 µM | – | > 30 µM | > 30 µM | > 10 µM | > 10 µM | > 10 µM | > 10 µM |
| O=C(O)c1ccccc1Nc1cccc(C(F)(F)F)c1 [FLUFENAMIC ACID] | – | > 30 µM | > 30 µM | > 30 µM | > 30 µM | – | > 30 µM | > 30 µM | – | – | – | – |
| C#C[C@]1(O)CC[C@H]2[C@@H]3CCC4=CC(=O)CCC4=C3C=C[C@@]21CC [GESTRINONE] | > 30 µM | – | – | – | – | – | – | – | – | – | – | – |
| CCCCCCOC(=O)CCC(=O)CN [HEXAMINOLEVULINATE] | > 30 µM | – | – | – | – | – | – | – | – | – | – | – |
| COC1=C(OC)C(=O)C(CCCCCCCCCCO)=C(C)C1=O [IDEBENONE] | – | > 30 µM | > 30 µM | > 30 µM | > 30 µM | > 10 µM | > 30 µM | > 30 µM | > 10 µM | > 10 µM | 8.99 µM | > 10 µM |
| CC#CCn1c(N2CCC[C@@H](N)C2)nc2c1c(=O)n(Cc1nc(C)c3ccccc3n1)c(=O)n2C [LINAGLIPTIN] | – | – | – | – | – | – | – | – | – | – | > 10 µM | > 10 µM |
| O=C1CN=C(c2ccccc2)c2cc(Cl)ccc2N1 [NORDAZEPAM] | – | > 30 µM | > 30 µM | > 30 µM | > 30 µM | > 10 µM | > 30 µM | > 30 µM | > 10 µM | > 10 µM | > 10 µM | > 10 µM |
| CC(CCc1ccccc1)NC(C)C(O)c1ccc(O)cc1 (stereo unspecified) [NYLIDRIN] | – | > 30 µM | > 30 µM | – | > 30 µM | > 10 µM | > 30 µM | > 30 µM | > 10 µM | > 10 µM | 0.733 µM | > 10 µM |
| O=C1Nc2ccc(Cl)cc2C(c2ccccc2)=NC1O (stereo unspecified) [OXAZEPAM] | – | > 30 µM | > 30 µM | > 30 µM | > 30 µM | > 10 µM | > 30 µM | > 30 µM | > 10 µM | > 10 µM | – | > 10 µM |
| CC(C)CC(N(C)C)C1(c2ccc(Cl)cc2)CCC1 (stereo unspecified) [SIBUTRAMINE] | – | > 30 µM | > 30 µM | > 30 µM | > 30 µM | > 10 µM | > 30 µM | > 30 µM | > 10 µM | > 10 µM | – | > 10 µM |
| [H]/N=C(/N)N[C@H]1[C@H](O)[C@@H](O)[C@H](O[C@@H]2O[C@@H](C)[C@](O)(C=O)[C@H]2O[C@@H]2O[C@@H](CO)[C@H](O)[C@@H](O)[C@@H]2NC)[C@@H](N/C(N)=N\[H])[C@@H]1O [STREPTOMYCIN] | – | > 30 µM | > 30 µM | > 30 µM | > 30 µM | – | > 30 µM | > 30 µM | > 10 µM | > 10 µM | > 10 µM | – |
| COc1c(O[C@@H]2O[C@H](CO)[C@@H](O)[C@H](O)[C@H]2O)cc2c(c1OC)-c1ccc(SC)c(=O)cc1[C@@H](NC(C)=O)CC2 [THIOCOLCHICOSIDE] | > 30 µM | – | – | – | – | – | – | – | – | – | – | – |
| N#C[C@@H]1CCCN1C(=O)CNC12CC3CC(CC(O)(C3)C1)C2 [VILDAGLIPTIN] | – | – | – | – | – | > 10 µM | – | – | > 10 µM | > 10 µM | > 10 µM | > 10 µM |
